Columns and labels:
[1] = tested on: DLD-1 (colorectal adenocarcinoma); experiment: Cytotoxicity/Growth Inhibition Assay (CellTiter-Glo); assay type: cell-based; conditions: Homo sapiens, 96 h, DLD-1 cells, hydrochloride salts, cultured 4 days
Experimental: The following examples illustrate the beneficial effect of the compounds of this invention against human cancer cell lines in vitro.
The human cancer cell line DLD-1 (colorectal adenocarcinoma) was obtained from the American Type Culture Collection, Manassas, Va., U.S.A. The CellTiter-Glo assay kit was obtained from Promega Corporation, Madison, Wis., U.S.A. All products were used in accordance with manufacturer's directions. All assays were conducted in triplicate wells, with dimethyl sulfoxide (DMSO) solvent control. The extent of cell growth was expressed as a percentage of the signal from the solvent control wells.
Log-phase cells were trypsinized, collected by centrifugation, and resuspended in a small volume of fresh medium, and the density of viable cells was determined following Trypan Blue staining. Cells were diluted in fresh media (3×10^3 cells/mL for DLD-1), and added at 150 μL/well to 96-well plates, and incubated for several hours to allow attachment in the case of adherent cells. […] After incubation for 10 minutes at room temperature, and the plate was read with a luminometer.

MIA PaCa-2 tumor = experiment: MiaPaCa-2 Xenograft Assay, Intraperitoneal Administration; assay type: in vivo, athymic nu/nu mice; conditions: for tumor mass inhibition relative to vehicle: autopsy day 19 after transplantation
Experimental: Male athymic nu/nu mice, 6-8 weeks old (approximately 20 g), were implanted subcutaneously in the right fore flank with 20-30 mg pieces of MIA PaCa-2 tumor harvested from similar nu/nu mice that had previously been implanted with the MIA PaCa-2 tumor. […] A group of mice was treated with compound 1A as the hydrochloride salt dissolved in aqueous 5% dextrose, at 100 mg/Kg by intraperitoneal injection once/day for 5 consecutive days; with vehicle and cyclophosphamide (30 mg/Kg) also administered by intraperitoneal injection for the same time. Tumor mass was estimated from volume on days 10, 13, and 17; and measured at autopsy on day 19 after transplantation.

SMILES	IC50 [1] [µM]	tumor mass inhibition relative to vehicle (MIA PaCa-2 tumor; 100 mg/Kg intraperitoneal once/day for 5 consecutive days, hydrochloride salt) [%]	safety at the dose tested (MIA PaCa-2 tumor; nu/nu mice, 100 mg/Kg intraperitoneal once/day for 5 days)	tumor mass inhibition relative to vehicle (MIA PaCa-2 tumor; 30 mg/Kg intraperitoneal once/day for 5 consecutive days) [%]
N[C@@H](CCC(=O)N[C@@H](CS(=O)(=O)CCOP(=O)(N(CCCl)CCCl)N(CCCl)CCCl)C(=O)N[C@@H](C(=O)O)c1ccccc1)C(=O)O [canfosfamide, reference compound]	11			
CCN(CC)CCS(=O)(=O)CCOP(N)(=O)N(CCCl)CCCl (centres unmarked) [compound 1A, 2-{[2-(diethylamino)ethyl]sulfonyl}ethyl N,N-bis(2-chloroethyl)phosphorodiamidate]	13	83	safe and non-toxic	
O=P1(N(CCCl)CCCl)NCCCO1 (centres unmarked) [cyclophosphamide, reference compound]				84
